Molecular target: T1, USP7 (Homo sapiens, UniProt Q93009, C315A)
T1 construct: 0.25 nM His-His-USP7 (aa208-560, [C315A]) was incubated with compound; His-His (N)
Assay: Inhibition of USP7 by Fluorescence Intensity (FLINT) readings, Ubiquitin-Rhodamine-110 substrate
Type: biochemical
Conditions: 0.25 nM His-His-USP7 (aa208-560, [C315A]); compound 60 minutes at 30° C.; 500 nM Ubiquitin-Rhodamine substrate; 11-point curves
Description: USP7 activity was measured using Rhodamine-110 c-terminal labelled Ubiquitin as a substrate (Viva Biosciences). Incubation with USP7 results in the release of Rhodamine-110 leading to an increase in fluorescence which can be used in the continuous measurement of USP7 activity.
The USP7 reactions were performed in a 50 μL volume, in 384 well black solid low binding plates (Corning #3575). The reaction buffer consisted of 100 mM Bicine pH 8.0, 0.01% TritonX 100, 1 mM TCEP, and 10% DMSO.
0.25 nM His-His-USP7 (aa208-560, [C315A]) was incubated with compound (final concentration 10% DMSO) for 60 minutes at 30° C. The reaction was then initiated by the addition of 500 nM Ubiquitin-Rhodamine-10 substrate and the plate read every 3 minutes for 21 minutes to measure the release of Rhodamine-110. Fluorescence Intensity (FLINT) readings were measured using a Biomek Neo plate reader (Ex. 485 nm. Em. 535 nm).
The inhibition of increasing doses of compound was expressed as a percentage reduction in kinetic rate compared to the kinetic rates established between ‘DMSO only’ and ‘total inhibition’ controls (no USP7). The inhibitory concentrations that gave a 50% reduction in kinetic rate (IC50) were determined, from 11-point dose response curves, in XL-Fit using a 4-Parameter Logistic Model (Sigmoidal Dose-Response Model).

T1 sequence (Q93009 208-560 C315A): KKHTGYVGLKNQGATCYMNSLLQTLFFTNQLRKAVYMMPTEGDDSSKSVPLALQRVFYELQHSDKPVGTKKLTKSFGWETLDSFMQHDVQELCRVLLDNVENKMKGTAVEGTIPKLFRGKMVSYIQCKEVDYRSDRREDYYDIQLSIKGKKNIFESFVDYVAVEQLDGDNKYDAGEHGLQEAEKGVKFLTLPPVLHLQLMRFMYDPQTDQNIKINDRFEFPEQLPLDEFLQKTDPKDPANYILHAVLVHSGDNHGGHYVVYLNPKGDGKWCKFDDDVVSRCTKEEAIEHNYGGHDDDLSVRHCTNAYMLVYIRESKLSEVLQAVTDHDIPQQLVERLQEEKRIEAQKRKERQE

IC50	SMILES
530 nM	Cn1ccc2c(=O)n(CC3(O)CCN(C(=O)[C@@H]4CCCC[C@H]4c4ccoc4)CC3)cnc21 (relative stereo) [Example 3, 3-[[1-[trans-2-(3-furyl)cyclohexanecarbonyl]-4-hydroxy-4-piperidyl]methyl]-7-methyl-pyrrolo[2,3-d]pyrimidin-4-one]
125 nM	O=C([C@@H]1CCC(F)(F)C[C@H]1c1ccco1)N1CCC(O)(Cn2cnc3c(-c4ccccc4)scc3c2=O)CC1 (single isomer, unassigned) [Example 86, 3-[[1-[trans-4,4-difluoro-2-(2-furyl)cyclohexanecarbonyl]-4-hydroxy-4-piperidyl]methyl]-7-phenyl-thieno[3,4-d]pyrimidin-4-one]
4580 nM	O=C([C@@H]1CCCC[C@H]1c1ccoc1)N1CCC(O)(Cn2cnc3cccnc3c2=O)CC1 (relative stereo) [Example 4, 3-[[1-[trans-2-(3-furyl)cyclohexanecarbonyl]-4-hydroxy-4-piperidyl]methyl]pyrido[3,2-d]pyrimidin-4-one]
76300 nM	CCn1cc([C@@H]2CC(F)(F)CC[C@H]2C(=O)N2CCC(O)(Cn3cnc4c(-c5ccccc5)scc4c3=O)CC2)cn1 (single isomer, unassigned) [Example 81, 3-[[1-[trans-2-(1-ethylpyrazol-4-yl)-4,4-difluoro-cyclohexanecarbonyl]-4-hydroxy-4-piperidyl]methyl]-7-phenyl-thieno[3,4-d]pyrimidin-4-one]
6640 nM	O=C([C@@H]1CCC(F)(F)C[C@H]1c1cnco1)N1CCC(O)(Cn2cnc3c(Cl)scc3c2=O)CC1 (relative stereo) [Example 76, 7-chloro-3-[[1-[trans-4,4-difluoro-2-oxazol-5-yl-cyclohexanecarbonyl]-4-hydroxy-4-piperidyl]methyl]thieno[3,4-d]pyrimidin-4-one]
4640 nM	COc1ccc(-n2ccc3c(=O)n(CC4(O)CCN(C(=O)[C@@H]5CCC(=O)N(C)[C@H]5c5ccccc5)CC4)cnc32)cc1 (single isomer, unassigned) [Example 118, 3-{[4-hydroxy-1-(trans-1-methyl-6-oxo-2-phenylpiperidine-3-carbonyl)piperidin-4-yl]methyl}-7-(4-methoxyphenyl)-3,7-dihydro-4H-pyrrolo[2,3-d]pyrimidin-4-one]
65.2 nM	COc1ccc(-n2ccc3c(=O)n(CC4(O)CCN(C(=O)[C@@H]5C(C)=CCC[C@H]5c5cccs5)CC4)cnc32)cc1 (single isomer, unassigned) [Example 59, 3-[[4-hydroxy-1-[trans-2-methyl-6-(2-thienyl)cyclohex-2-ene-1-carbonyl]-4-piperidyl]methyl]-7-(4-methoxyphenyl)pyrrolo[2,3-d]pyrimidin-4-one]
685 nM	O=C([C@@H]1CCO[C@H]1c1ccccc1)N1CCC(O)(Cn2cnc3c(ccn3-c3ccccc3)c2=O)CC1 (relative stereo) [Example 46, 3-[[4-hydroxy-1-[trans-2-phenyltetrahydrofuran-3-carbonyl]-4-piperidyl]methyl]-7-phenyl-pyrrolo[2,3-d]pyrimidin-4-one]
60.1 nM	O=C([C@@H]1CC(F)(F)CC[C@H]1c1ccccc1)N1CCC(O)(Cn2cnc3c(-c4ccccc4)scc3c2=O)CC1 (single isomer, unassigned) [Example 79, 3-[[1-[trans-5,5-difluoro-2-phenyl-cyclohexanecarbonyl]-4-hydroxy-4-piperidyl]methyl]-7-phenyl-thieno[3,4-d]pyrimidin-4-one]
310 nM	O=C([C@@H]1CCC(F)(F)C[C@H]1c1ccsc1)N1CCC(O)(Cn2cnc3c(-c4ccccc4)scc3c2=O)CC1 (single isomer, unassigned) [Example 88, 3-[[1-[trans-4,4-difluoro-2-(3-thienyl)cyclohexanecarbonyl]-4-hydroxy-4-piperidyl]methyl]-7-phenyl-thieno[3,4-d]pyrimidin-4-one]
19400 nM	O=C([C@@H]1OCCO[C@@H]1c1ccccc1)N1CCC(O)(Cn2cnc3c(ccn3-c3ccccc3)c2=O)CC1 (single isomer, unassigned) [Example 5, 3-[[4-hydroxy-1-[cis-3-phenyl-1,4-dioxane-2-carbonyl]-4-piperidyl]methyl]-7-phenyl-pyrrolo[2,3-d]pyrimidin-4-one]
13500 nM	O=C([C@@H]1CCC(F)(F)C[C@H]1c1ccccc1)N1CCC(O)(Cn2cnc3c(ccn3-c3ccccc3)c2=O)CC1 (single isomer, unassigned) [Example 35, 3-[[1-[trans-4,4-difluoro-2-phenyl-cyclohexanecarbonyl]-4-hydroxy-4-piperidyl]methyl]-7-phenyl-pyrrolo[2,3-d]pyrimidin-4-one]
15.3 nM	O=C(Cc1c[nH]c2ccc(O)cc12)Nc1ccc2ncn(CC3(O)CCN(C(=O)C4CCCCC4c4ccccc4)CC3)c(=O)c2n1 (stereo not drawn) [Example 105, 2-(5-hydroxy-1H-idol-3-yl)-N-[3-[[4-hydroxy-1-(trans-2-phenylcyclohexanecarbonyl)-4-piperidyl]methyl]-4-oxo-pyrido[3,2-d]pyrimidin-6-yl]acetamide]
4670 nM	COc1ccc(-n2ccc3c(=O)n(CC4(O)CCN(C(=O)[C@@H]5CCC(F)(F)C[C@H]5c5ccccc5)CC4)cnc32)cc1 (single isomer, unassigned) [Example 33, 3-[[1-(trans-4,4-difluoro-2-phenyl-cyclohexanecarbonyl)-4-hydroxy-4-piperidyl]methyl]-7-(4-methoxyphenyl)pyrrolo[2,3-d]pyrimidin-4-one]
6500 nM	COc1ccc(-n2ccc3c(=O)n(CC4(O)CCN(C(=O)[C@@H]5OCCO[C@@H]5c5ccccc5)CC4)cnc32)cc1 (single isomer, unassigned) [Example 7, 3-[[4-hydroxy-1-[cis-3-phenyl-1,4-dioxane-2-carbonyl]-4-piperidyl]methyl]-7-(4 methoxyphenyl)pyrrolo[2,3-d]pyrimidin-4-one]
611 nM	O=C([C@@H]1CCC(F)(F)C[C@H]1c1ccncc1)N1CCC(O)(Cn2cnc3c(-c4ccccc4)scc3c2=O)CC1 (relative stereo) [Example 84, 3-[[1-[trans-4,4-difluoro-2-(4-pyridyl)cyclohexanecarbonyl]-4-hydroxy-4-piperidyl]methyl]-7-phenyl-thieno[3,4-d]pyrimidin-4-one]
450 nM	O=C([C@@H]1CCCC[C@H]1c1ccccc1)N1CCC(O)(Cn2cnc3c(ccn3Cc3ccsc3)c2=O)CC1 (relative stereo) [Example 110, 3-[[4-hydroxy-1-(trans-2-phenylcyclohexanecarbonyl)-4-piperidyl]methyl]-7-(3-thienylmethyl)pyrrolo[2,3-d]pyrimidin-4-one]
2760 nM	O=C([C@@H]1CC(F)(F)CC[C@H]1c1ccccc1)N1CCC(O)(Cn2cnc3c(ccn3-c3ccccc3)c2=O)CC1 (single isomer, unassigned) [Example 31, 3-[[1-[trans-5,5-difluoro-2-phenyl-cyclohexanecarbonyl]-4-hydroxy-4-piperidyl]methyl]-7-phenyl-pyrrolo[2,3-d]pyrimidin-4-one]
171 nM	O=C([C@@H]1CCCC[C@H]1c1ccccc1)N1CCC(O)(Cn2cnc3cccnc3c2=O)CC1 (relative stereo) [Example 93, 3-[[4-hydroxy-1-(trans-2-phenylcyclohexanecarbonyl)-4-piperidyl]methyl]pyrido[3,2-d]pyrimidin-4-one]
1590 nM	O=C(C1CCCCC1c1ccc(F)cc1)N1CCC(O)(Cn2cnc3c(ccn3-c3ccccc3)c2=O)CC1 (single isomer, unassigned) [Example 42, 3-[[1-[(trans-2-(4-fluorophenyl)cyclohexanecarbonyl]-4-hydroxy-4-piperidyl]methyl]-7-phenyl-pyrrolo[2,3-d]pyrimidin-4-one]
591 nM	O=C([C@@H]1CCC(F)(F)C[C@H]1c1cocn1)N1CCC(O)(Cn2cnc3c(-c4ccc(CO)cc4)scc3c2=O)CC1 (relative stereo) [Example 77, 3-[[1-[trans-4,4-difluoro-2-oxazol-4-yl-cyclohexanecarbonyl]-4-hydroxy-4-piperidyl]methyl]-7-[4-(hydroxymethyl)phenyl]thieno[3,4-d]pyrimidin-4-one]
413 nM	COc1ccc(-n2ccc3c(=O)n(CC4(O)CCN(C(=O)[C@@H]5CCCC[C@H]5n5ccnc5)CC4)cnc32)cc1 (single isomer, unassigned) [Example 48, 3-[[4-hydroxy-1-[trans-2-imidazol-1-ylcyclohexanecarbonyl]-4-piperidyl]methyl]-7-(4-methoxyphenyl)pyrrolo[2,3-d]pyrimidin-4-one]
9230 nM	COc1ccc(-n2ccc3c(=O)n(CC4(O)CCN(C(=O)[C@@H]5CCCC[C@H]5c5nccn5C)CC4)cnc32)cc1 (single isomer, unassigned) [Example 70, 3-[[4-hydroxy-1-[trans-2-(1-methylimidazol-2-yl)cyclohexanecarbonyl]-4-piperidyl]methyl]-7-(4-methoxyphenyl)pyrrolo[2,3-d]pyrimidin-4-one]
